Reference: US20220211732A1, “PREBIOTIC COMPOSITIONS” (Evonik Operations GmbH, priority 2019, published 2022)

Key:
[1] = in vivo; cited from earlier work
human fecal microbiota = assay: I-screen intestinal screening model, SCFA production (Example 1); type: cell-based; settings: 24 h incubation, mean of triplicates
Experimental: (§1) To determine the effect of a EPA/DHA lysine salt (EPA/DHA-Lys) on adult colonic microbiota, an intestinal screening model was used (I-screen, TNO, the Netherlands). Therefore, the I-screen model was inoculated with standard human adult fecal microbiota material, which consisted of pooled fecal donations from six healthy adult volunteers (Caucasian, European lifestyle and nutrition). The fecal material was mixed and grown in a fed-batch fermenter for 40 hours to create a standardized microbiota as described previously. These standard adult gut microbiota sets were stored at −80° C. in 12% glycerol.
(§2) The intestinal microbiota was cultured in vitro in modified standard ileal efflux medium (SIEM), the composition of which was described by Minekus et al.. All components were supplied by Trititium Microbiology (Veldhoven, The Netherlands). The pH of the medium was adjusted to 5.8.
(§3) For the I-screen fermentations, the pre-cultured standardized fecal inoculum was diluted 50 times in modified SIEM. EPA/DHA-Lys was introduced into the I-screen to final concentrations of 1.4 mg/ml and 1.5 mg/ml, respectively; omega-3 ethyl ester and fish oil at 1.4 mg/ml each. Inulin was added as a control at a final concentration of 4 mg/ml. […] All experiments were carried out in triplicates.
(§4) For the analysis of short-chain fatty acids in exposed material from the I-screen, samples were centrifuged (˜4000 g, 5 min), clear supernatant was filter sterilized (0.45 μm) and a mixture of formic acid (20%), methanol and 2-ethyl butyric acid (internal standard, 2 mg/ml in methanol) was added.

[2] = system: human intestinal microbiota; assay: SCFA production after omega-3 amino acid salts and controls (Example 2); type: cell-based; settings: salts 1.4 mg/ml, FFA 0.96, Lys 0.49, Arg 0.52, Orn 0.5 mg/ml; for Acetate, change compared to control / Propionate, change compared to control / n-Butyrate, change compared to control: triplicates
Experimental: as §1, with “previously.” for “previously. These standard adult gut microbiota sets were stored at −80° C. in 12% glycerol.”
as §2, §3, §4
The effects of different omega-3 amino acid salts omega-3-lysine (omega-3-lys), omega-3-arginine (omega-3-arg) and omega-3-ornithine (omega-3-orn) and their respective controls (free fatty acids (FFA), amino acids lysine (lys), arginine (arg) and ornithine (orn)) on SCFA production by an intestinal microbiota were analyzed.

human fecal microbiota 1 = assay: TIM-2 in vitro colon model, SCFA production, microbiota 1 (Example 3); type: cell-based; settings: for Cumulative production of acetate / Cumulative production of butyrate / Cumulative production of propionate: lumen and dialysate, duplicates
From the text: To confirm the results for omega-3 amino acid salts, using omega-3 lysine as an example, an additional, independent and more advanced model of fermentation by the human colonic microbiota was applied, the TIM-2 model. Next to omega-3 lysine the prebiotic carbohydrate L-rhamnose was also applied. TIM-2 is an abbreviation of TNO's in vitro model-2, an advanced dynamic, computer-controlled in vitro model of the adult human colon. TIM-2 simulates to a high degree the successive dynamic processes in the colon and is predictive for what happens in human individuals. The following in vivo conditions are simulated in this model: body temperature, pH in the lumen, composition and rate of secretion, delivery of a pre-digested substrate from the ‘ileum’ (SIEM), mixing and transport of the intestinal contents, absorption of water and microbial metabolites and presence of a complex, high density, metabolically active, anaerobic fecal microbiota of human origin. The model was set-up and inoculated with the microbiota on the first day. Following an overnight adaptation period in SIEM, the test-products were fed at final concentrations of 1.4 mg/ml EPA/DHA-Lys or 1 mg/ml L-rhamnose in SIEM during an intervention period of 72 hrs. Cultivation in SIEM without any additional substance served as control condition. Samples were taken from the lumen and the dialysate every 24 hrs (t0, t24, t48 and t72) to study the metabolic activity of the gut microbiota (SCFA production) and changes in composition of the gut microbiota (16S rRNA gene analysis). Samples were analyzed for SCFA by ion-chromatography. […] The order of Pr/Ac for the 72 h treatments is control (SIEM)<L-rhamnose<EPA/DHA-Lys (ω-3)<L-rhamnose+EPA/DHA-Lys (ω-3).

[3] = cited from earlier work
human fecal microbiota 2 = assay: TIM-2 in vitro colon model, SCFA production, microbiota 2 (Example 6); type: cell-based; settings: for Cumulative production of acetate / Cumulative production of butyrate / Cumulative production of propionate: lumen and dialysate, duplicates
From the text: TIM-2 is an abbreviation of TNO's in vitro model-2, an advanced dynamic, computer-controlled in vitro model of the adult human colon. TIM-2 simulates to a high degree the successive dynamic processes in the colon and is predictive for what happens in human individuals. The following in vivo conditions are simulated in this model: body temperature, pH in the lumen, composition and rate of secretion, delivery of a pre-digested substrate from the ‘ileum’ (SIEM), mixing and transport of the intestinal contents, absorption of water and microbial metabolites and presence of a complex, high density, metabolically active, anaerobic fecal microbiota of human origin.
The model was set-up and inoculated with the microbiota on the first day. Following an overnight adaptation period in SIEM, the test-products were fed at final concentrations of 1.4 mg/ml EPA/DHA-Lys or 1 mg/ml L-rhamnose in SIEM during an intervention period of 72 hrs. Cultivation in SIEM without any additional substance served as control condition.
Samples were taken from the lumen and the dialysate every 24 hrs (t0, t24, t48 and t72) to study the metabolic activity of the gut microbiota (SCFA production) and changes in composition of the gut microbiota (16S rRNA gene analysis).
Samples were analyzed for SCFA by ion-chromatography.
A second TIM-2 study was performed, using conditions as described under Example 3 but applying a different human fecal microbiota (termed microbiota 2), to assess whether the observed effects are dependent on the initial microbiota composition.
T1=EPA/DHA-Lys (ω-3); T2=L-rhamnose.

CCCC(=O)O [butyrate]
Systemic availability of colonic SCFA [1]: ~2%

Inulin
n-Butyrate, change compared to control (human fecal microbiota): +0.46 mM
Propionate, change compared to control (human fecal microbiota; controls ~8 mM propionate): +0.03 mM
Acetate, change compared to control (human fecal microbiota; controls ~40 mM acetate): +5.87 mM

NCCCC[C@H](N)C(=O)O [Lys, L-lysine]
Propionate/acetate ratio [2]: 0.40
Acetate, change compared to control [2]: +8.81 mM
Propionate, change compared to control [2]: +2.12 mM
n-Butyrate, change compared to control [2]: +0.29 mM

NCCC[C@H](N)C(=O)O [Orn, L-ornithine]
Propionate/acetate ratio [2]: 0.36
Acetate, change compared to control [2]: +10.15 mM
Propionate, change compared to control [2]: +1.74 mM
n-Butyrate, change compared to control [2]: +0.19 mM

N=C(N)NCCC[C@H](N)C(=O)O [Arg, L-arginine]
Propionate/acetate ratio [2]: 0.40
Acetate, change compared to control [2]: +8.29 mM
Propionate, change compared to control [2]: +2.02 mM
n-Butyrate, change compared to control [2]: +0.71 mM

CC(=O)O [acetate]
Systemic availability of colonic SCFA [1]: ~36%

C[C@H](O)[C@H](O)[C@@H](O)[C@@H](O)C=O [rhamnose, L-rhamnose]
Cumulative production of acetate (human fecal microbiota 1; 0 h): 0.00 mmol
Cumulative production of butyrate (human fecal microbiota 1; 0 h): 0.00 mmol
Cumulative production of propionate (human fecal microbiota 1; 0 h): 0.00 mmol
Pr/Ac (propionate-to-acetate ratio) (human fecal microbiota 1; 24 h): 0.57
Cumulative production of acetate (human fecal microbiota 1; 24 h): 25.30 mmol
Cumulative production of butyrate (human fecal microbiota 1; 24 h): 15.69 mmol
Cumulative production of propionate (human fecal microbiota 1; 24 h): 14.30 mmol
Pr/Ac (propionate-to-acetate ratio) (human fecal microbiota 1; 48 h): 0.56
Cumulative production of acetate (human fecal microbiota 1; 48 h): 56.28 mmol
Cumulative production of butyrate (human fecal microbiota 1; 48 h): 35.02 mmol
Cumulative production of propionate (human fecal microbiota 1; 48 h): 31.64 mmol
Pr/Ac (propionate-to-acetate ratio) (human fecal microbiota 1; 72 h): 0.56
Cumulative production of acetate (human fecal microbiota 1; 72 h): 81.62 mmol
Cumulative production of butyrate (human fecal microbiota 1; 72 h): 52.10 mmol
Cumulative production of propionate (human fecal microbiota 1; 72 h): 45.41 mmol
Ratio of SCFA: acetate as percentage of acetate + propionate + butyrate (human fecal microbiota 1; microbiota 1, average): 51.1%
Ratio of SCFA: butyrate as percentage of acetate + propionate + butyrate (human fecal microbiota 1; microbiota 1, average): 28.1%
Ratio of SCFA: propionate as percentage of acetate + propionate + butyrate (human fecal microbiota 1; microbiota 1, average): 20.8%
Circulating propionate after L-rhamnose ([3]; acute intake of 25 g L-rhamnose): significant increase
Serum propionate after L-rhamnose ([3]; up to 25.5 g L-rhamnose/day for seven days): no increase
Cumulative production of acetate (human fecal microbiota 2; 0 h): 0.00 mmol
Cumulative production of butyrate (human fecal microbiota 2; 0 h): 0.00 mmol
Cumulative production of propionate (human fecal microbiota 2; 0 h): 0.00 mmol
Pr/Ac (propionate-to-acetate ratio) (human fecal microbiota 2; 24 h): 0.57
Cumulative production of acetate (human fecal microbiota 2; 24 h): 25.30 mmol
Cumulative production of butyrate (human fecal microbiota 2; 24 h): 15.69 mmol
Cumulative production of propionate (human fecal microbiota 2; 24 h): 14.30 mmol
Pr/Ac (propionate-to-acetate ratio) (human fecal microbiota 2; 48 h): 0.56
Cumulative production of acetate (human fecal microbiota 2; 48 h): 56.28 mmol
Cumulative production of butyrate (human fecal microbiota 2; 48 h): 35.02 mmol
Cumulative production of propionate (human fecal microbiota 2; 48 h): 31.64 mmol
Pr/Ac (propionate-to-acetate ratio) (human fecal microbiota 2; 72 h): 0.56
Cumulative production of acetate (human fecal microbiota 2; 72 h): 81.62 mmol
Cumulative production of butyrate (human fecal microbiota 2; 72 h): 52.10 mmol
Cumulative production of propionate (human fecal microbiota 2; 72 h): 45.41 mmol
Ratio of SCFA: acetate as percentage of acetate + propionate + butyrate (human fecal microbiota 2; microbiota 2, average): 45.7%
Ratio of SCFA: butyrate as percentage of acetate + propionate + butyrate (human fecal microbiota 2; microbiota 2, average): 29.0%
Ratio of SCFA: propionate as percentage of acetate + propionate + butyrate (human fecal microbiota 2; microbiota 2, average): 25.3%
